Measured values published in the supplement of paper PMC10307832.

Compound: O=C(O)c1ccc2c(c1)nc(Nc1cccc(Cl)c1)c1ccncc12 [Silmitasertib] + NC(=O)Nc1cc(-c2cccc(F)c2)sc1C(=O)N[C@H]1CCCNC1 [AZD7762] (partner 0.2 µM)
Assay: relative viability (nuclei count vs DMSO), 5 days (fraction); higher = more cells survive
In short: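 Relative viability equals treated-well nuclei counts divided by vehicle-well nuclei counts. Counts came from 4× images of lung cancer cell lines grown in 1536-well plates for 5 days after pin-tool dosing on the day after seeding. Dosing used one drug alone or a fixed anchor-drug dose plus five library-drug doses (not always all listed) in √10 steps, and values are medians of duplicate plates.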

Row | Cell Line | relative viability (first compound 0.04 µM) | relative viability (first compound 0.4 µM) | relative viability (first compound 1.265 µM) | relative viability (first compound 4 µM)
1 | 201T | 0.636 | 0.372 | 0.754 | 0.682
2 | A-427 | 0.852 | 0.555 | 0.562 | 0.445
3 | ABC-1 | 0.948 | 0.824 | 0.8 | 0.567
4 | BEN | 0.935 | 0.674 | 0.625 | 0.568
5 | CAL-12T | 0.656 | 0.7 | 0.805 | 0.77
6 | ChaGo-K-1 | 0.905 | 0.618 | 0.85 | 0.913
7 | EKVX | 0.834 | – | 0.682 | 0.642
8 | EMC-BAC-2 | 1.22 | 1.04 | 1.08 | 0.662
9 | EPLC-272H | 0.232 | – | 0.275 | 0.217
10 | H3255 | 1.09 | 0.808 | 0.807 | 0.77
11 | HARA | 0.411 | 0.289 | 0.589 | 0.443
12 | HCC-15 | 1.19 | 0.884 | 1.15 | 0.875
13 | HCC-44 | 0.978 | 1.04 | 1.08 | 0.978
14 | HCC-78 | 0.783 | 0.469 | 0.405 | 0.475
15 | HCC-366 | 0.254 | 0.188 | 0.371 | 0.147
16 | HCC-827 | 0.234 | – | 0.214 | 0.205
17 | HOP-62 | 0.554 | – | 0.663 | 0.385
18 | LC-2-ad | 0.95 | 0.811 | 0.797 | 0.494
19 | LCLC-97TM1 | 0.418 | – | 0.191 | 0.128
20 | LCLC-103H | 0.839 | 0.803 | 0.759 | 0.588
21 | LK-2 | 0.344 | – | 0.362 | 0.219
22 | LOU-NH91 | 0.785 | 0.745 | 0.621 | 0.594
23 | LU99A | 0.339 | 0.382 | 0.276 | 0.283
24 | LXF-289 | 1.13 | – | 1.29 | 1.28
25 | NCI-H23 | 0.29 | 0.153 | 0.344 | 0.165
26 | NCI-H322M | 0.554 | 0.608 | 0.562 | 0.405
27 | NCI-H358 | 0.633 | 0.574 | 0.595 | 0.567
28 | NCI-H441 | 1.34 | – | 1.09 | 1.16
29 | NCI-H460 | 0.608 | 0.671 | 0.759 | 0.384
30 | NCI-H522 | 0.89 | 0.841 | 0.822 | 0.819
